According to patent US7829300B2 (priority 2002, dated 2010):

Tests used:
5HT-1B receptor = target: T1, 5HT-1B receptor (Cricetulus griseus, UniProt P46636); assay: Cytoplasmic Ca2+ measurement (FLIPR, fluo-4) of the endogenously expressed 5HT-1B receptor in CHO K1 cells; type: cell-based; settings: serotonin concentration 10 μM, 100 nM ATP, CHOK1-ORL-K66, mean of four measurements
T1 construct: the 5HT-1B receptor endogenously expressed by the CHO cells; endogenous in cells; host or cells: CHO K1 (CHOK1-ORL-K66)
T1 sequence (P46636 whole entry): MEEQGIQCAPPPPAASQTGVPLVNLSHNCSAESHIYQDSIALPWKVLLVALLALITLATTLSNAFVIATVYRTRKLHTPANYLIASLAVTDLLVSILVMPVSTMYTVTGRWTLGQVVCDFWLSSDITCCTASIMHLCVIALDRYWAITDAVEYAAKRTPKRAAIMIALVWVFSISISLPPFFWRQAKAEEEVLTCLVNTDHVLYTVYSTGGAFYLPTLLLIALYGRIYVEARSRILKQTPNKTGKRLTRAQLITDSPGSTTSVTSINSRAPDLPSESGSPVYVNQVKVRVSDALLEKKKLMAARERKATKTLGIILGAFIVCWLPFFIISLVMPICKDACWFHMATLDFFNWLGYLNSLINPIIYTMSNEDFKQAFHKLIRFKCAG
Procedure: The cytoplasmic Ca^2+ concentration was measured in all the Examples using the FLIPR Calcium Plus Assay Kit and a corresponding FLIPR device from Molecular Devices, according to the manufacturer's instructions.
In brief, on the day preceding the experiment, the cells to be measured were plated out in a suitable 96-well cell culture plate, in a density of 25,000 cells per well, in a volume of 100 μl of the appropriate medium. Cell culture plates from Becton-Dickinson (order no. 66440) coated with poly-D-lysine were used for the test. On the day of the test, the cells were loaded with fluo-4. To that end, a vial of fluo-4 was dissolved in 23 μl of DMSO and 23 μl of Pluronic F 127. 42 μl of the solution were added to 21 ml of HBSS (+Probenecid and Hepes). 50 μl of this solution per well were added to the cells, the plates being incubated, for loading, for 30 minutes at 37° C., 5% CO2, 98% relative humidity. In order to remove excess loading solution, the plates were washed three times with 200 μl of HBSS in a washing device for 96-well plates. This was followed by a dispension step, in which in each case 100 μl of HBSS were added to the cells. […]
Compared with the negative control, the addition of the 5HT-1B agonist serotonin produced a marked signal intensification in the fluorescence measurement (FIG. 6).

μ opioid receptor = target: T2, μ opioid receptor (Homo sapiens, UniProt P35372); type: cell-based
T2 construct: expressed in transfected cells; host or cells: CHO K1 (clone CHOK1-μ-K32)
T2 sequence (P35372 whole entry, species assumed): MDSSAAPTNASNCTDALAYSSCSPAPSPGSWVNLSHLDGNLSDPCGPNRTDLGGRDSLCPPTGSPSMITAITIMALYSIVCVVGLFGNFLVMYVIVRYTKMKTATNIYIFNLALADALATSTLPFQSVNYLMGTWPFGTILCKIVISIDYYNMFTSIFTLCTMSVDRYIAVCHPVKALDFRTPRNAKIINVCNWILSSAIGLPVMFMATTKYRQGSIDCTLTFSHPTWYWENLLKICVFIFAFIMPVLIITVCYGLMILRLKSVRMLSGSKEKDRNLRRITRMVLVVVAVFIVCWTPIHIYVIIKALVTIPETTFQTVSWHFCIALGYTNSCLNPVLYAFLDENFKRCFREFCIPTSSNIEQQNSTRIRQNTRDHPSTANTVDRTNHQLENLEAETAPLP

[1] = test system: CHOK1-empty (mock) strain; type: cell-based
P2X7 = target: T3, P2X7 (Homo sapiens, UniProt Q99572); settings: P2X7 versus P2Y2; cited from earlier work
T3 sequence (Q99572 1-595): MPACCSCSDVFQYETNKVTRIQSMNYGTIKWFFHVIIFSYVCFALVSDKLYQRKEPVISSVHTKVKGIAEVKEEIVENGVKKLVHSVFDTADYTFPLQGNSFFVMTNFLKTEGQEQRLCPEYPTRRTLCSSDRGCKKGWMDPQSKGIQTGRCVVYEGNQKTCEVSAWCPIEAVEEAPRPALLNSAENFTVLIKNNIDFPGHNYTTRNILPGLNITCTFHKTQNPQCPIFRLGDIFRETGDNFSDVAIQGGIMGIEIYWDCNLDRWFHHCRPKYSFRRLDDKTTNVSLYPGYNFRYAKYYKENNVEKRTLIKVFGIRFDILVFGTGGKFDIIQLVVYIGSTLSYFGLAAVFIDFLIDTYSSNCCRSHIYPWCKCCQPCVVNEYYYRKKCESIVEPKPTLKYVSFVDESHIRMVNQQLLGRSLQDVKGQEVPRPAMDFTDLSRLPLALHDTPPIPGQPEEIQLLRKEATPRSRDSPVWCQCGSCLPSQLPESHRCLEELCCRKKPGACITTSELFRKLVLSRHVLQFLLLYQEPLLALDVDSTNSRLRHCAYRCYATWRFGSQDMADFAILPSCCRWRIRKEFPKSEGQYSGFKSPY

P2Y2 receptor = assay: Cytoplasmic Ca2+ measurement with ATP alone in CHOK1-μ-K32 cells (endogenous P2Y2); type: cell-based

Compound: NCCc1c[nH]c2ccc(O)cc12 [serotonin]
- fluorescence intensity on average (5HT-1B receptor): 1337 relative units

Compound: C[C@@H](NC(=O)[C@@H](N)Cc1ccc(O)cc1)C(=O)NCC(=O)N(C)[C@@H](Cc1ccccc1)C(=O)NCCO [DAMGO]
- fluorescence intensity in dependence on concentration (μ opioid receptor): conventional dose-response curve
- fluorescence signal (μ opioid receptor): about 300 relative units
- effect of DAMGO on the ATP-triggered fluorescence signal [1]: not affected
- fluorescence signal in non-transfected CHOK1 cells [1]: none of the μ-receptor agonists used gave a fluorescence signal above the background

Compound: Nc1ncnc2c1ncn2[C@@H]1O[C@H](COP(=O)(O)OP(=O)(O)OP(=O)(O)O)[C@@H](O)[C@H]1O [ATP]
- ATP binding to P2X7 relative to P2Y2 (times more weakly) (P2X7): about 100 times
- fluorescence signal (P2Y2 receptor; 300 nM ATP, absence of DAMGO, CHOK1-μ-K32): more than 1000 relative units
- ATP concentration at which a change in the fluorescence is detectable (P2Y2 receptor; ATP on its own, CHO-μ-K32 cells): ≥ 300 nM
